The IC50 is the concentration that inhibits the measured activity by half. A higher IC50 goes with weaker potency.
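Further: fluorescence intensity readout of USP7 enzymatic activity, reaction incubated 90 min at room temperature.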

The target in this assay is USP7 (Homo sapiens, UniProt Q93009). Kind of assay: biochemical.
Sequence of USP7 (Q93009 whole entry): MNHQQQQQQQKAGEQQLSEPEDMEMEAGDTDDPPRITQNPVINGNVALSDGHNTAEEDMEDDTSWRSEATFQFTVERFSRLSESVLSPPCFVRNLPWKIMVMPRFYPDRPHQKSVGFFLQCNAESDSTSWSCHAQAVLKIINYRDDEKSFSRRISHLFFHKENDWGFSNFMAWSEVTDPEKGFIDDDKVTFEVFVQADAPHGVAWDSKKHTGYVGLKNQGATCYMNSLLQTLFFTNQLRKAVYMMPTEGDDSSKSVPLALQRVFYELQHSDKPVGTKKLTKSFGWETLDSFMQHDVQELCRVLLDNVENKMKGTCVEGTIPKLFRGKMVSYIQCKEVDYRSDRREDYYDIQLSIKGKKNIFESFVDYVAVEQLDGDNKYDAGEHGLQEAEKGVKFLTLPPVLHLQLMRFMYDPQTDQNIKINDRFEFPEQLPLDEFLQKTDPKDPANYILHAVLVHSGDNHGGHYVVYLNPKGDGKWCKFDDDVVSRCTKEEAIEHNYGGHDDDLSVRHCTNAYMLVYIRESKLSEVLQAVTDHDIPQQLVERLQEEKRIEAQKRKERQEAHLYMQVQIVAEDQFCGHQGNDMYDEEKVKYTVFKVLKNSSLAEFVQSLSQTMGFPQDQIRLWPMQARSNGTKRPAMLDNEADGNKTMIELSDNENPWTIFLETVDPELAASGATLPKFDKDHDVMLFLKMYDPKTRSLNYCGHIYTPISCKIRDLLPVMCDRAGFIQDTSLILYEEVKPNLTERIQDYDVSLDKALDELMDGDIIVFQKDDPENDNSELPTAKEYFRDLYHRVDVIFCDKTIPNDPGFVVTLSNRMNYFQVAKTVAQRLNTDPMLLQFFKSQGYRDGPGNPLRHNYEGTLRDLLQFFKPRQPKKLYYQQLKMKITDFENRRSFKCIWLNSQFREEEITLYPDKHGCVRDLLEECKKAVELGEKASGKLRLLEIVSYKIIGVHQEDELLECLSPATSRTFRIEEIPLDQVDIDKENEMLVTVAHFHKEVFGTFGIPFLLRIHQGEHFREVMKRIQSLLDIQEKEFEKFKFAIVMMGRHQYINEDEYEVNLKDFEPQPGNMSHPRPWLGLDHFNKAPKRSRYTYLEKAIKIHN
In turn, `CN1CC[C@@H](N2CCCc3cc(Cl)cc(-c4ccnc5cc(CN6C(=O)CCC6=O)sc45)c32)C1` [Example 60, (R)-1-((7-(6-chloro-1-(1-methylpyrrolidin-3-yl)-1,2,3,4-tetrahydroquinolin-8-yl)thieno[3,2-b]pyridin-2-yl)methyl)pyrrolidine-2,5-dione] displayed a half-inhibitory concentration (IC50) of less than 10 nM.

The molecule `Cn1ccnc(Cc2cc3nccc(-c4cc(Cl)cc5c4N([C@@H]4CNC6(CCC6)C4)CCC5)c3s2)c1=O` (stereo in doubt) [Example 160, 3-((7-(6-chloro-1-(5-azaspiro[3.4]octan-7-yl)-1,2,3,4-tetrahydroquinolin-8-yl)thieno[3,2-b]pyridin-2-yl)methyl)-1-methylpyrazin-2(1H)-one] showed an IC50 of 101 to 1000 nM.

In turn, `O=C1CCC(=O)N1Cc1cc2nccc(-c3cc(Cl)cc4c3N(C3CN(C5CC5)C3)CCC4)c2s1` [Example 5, 1-((7-(6-chloro-1-(1-cyclopropylazetidin-3-yl)-1,2,3,4-tetrahydroquinolin-8-yl)thieno[3,2-b]pyridin-2-yl)methyl)pyrrolidine-2,5-dione] had a half-maximal inhibitory concentration (IC50) of 10 to 100 nM. Under `COC(=O)[C@@]1(C)C[C@@H](N2CCCc3cc(Cl)cc(-c4ccnc5cc(CN6C(=O)CCC6=O)sc45)c32)CN1` (single isomer, unassigned) [Example 201] stands 101 to 1000 nM; under `O=C1CCC(=O)N1Cc1cc2nccc(-c3cc(C(F)(F)F)cc4c3N([C@@H]3CNC5(CCC5)C3)CCC4)c2s1` [Example 163, (S)-1-((7-(1-(5-azaspiro[3.4]octan-7-yl)-6-(trifluoromethyl)-1,2,3,4-tetrahydroquinolin-8-yl)thieno[3,2-b]pyridin-2-yl)methyl)pyrrolidine-2,5-dione], less than 10 nM. In the case of `O=c1ccn(CC2CC2)c(=O)n1Cc1cc2nccc(-c3cc(Cl)cc4c3N([C@H]3CCNC3)CCC4)c2s1` [Example 62, (S)-3-((7-(6-chloro-1-(pyrrolidin-3-yl)-1,2,3,4-tetrahydroquinolin-8-yl)thieno[3,2-b]pyridin-2-yl)methyl)-1-(cyclopropylmethyl)pyrimidine-2,4(1H,3H)-dione], the IC50 was less than 10 nM. The molecule `O=C1CCC(=O)N1Cc1cc2nccc(-c3cc(Cl)cc4c3N([C@@H]3CC[C@@]5(CCCN5)C3)CCC4)c2s1` (single isomer, unassigned) [Example 179b] yielded an IC50 of 10 to 100 nM.

In turn, `C[C@]1(CO)C[C@H](N2CCCc3cc(C#N)cc(-c4ccnc5cc(CN6C(=O)CCC6=O)sc45)c32)CN1` [Example 209, 8-(2-((2,5-dioxopyrrolidin-1-yl)methyl)thieno[3,2-b]pyridin-7-yl)-1-((3S,5R)-5-(hydroxymethyl)-5-methylpyrrolidin-3-yl)-1,2,3,4-tetrahydroquinoline-6-carbonitrile] came in with a half-inhibitory concentration (IC50) of less than 10 nM. In turn, `CC1(C)OC(=O)N(Cc2cc3nccc(-c4cc(Cl)cc5c4N([C@@H]4CNC6(CCC6)C4)CCC5)c3s2)C1=O` [Example 152, (S)-3-((7-(6-chloro-1-(5-azaspiro[3.4]octan-7-yl)-1,2,3,4-tetrahydroquinolin-8-yl)thieno[3,2-b]pyridin-2-yl)methyl)-5,5-dimethyloxazolidine-2,4-dione] came in with a half-inhibitory concentration (IC50) of 10 to 100 nM. `CN1CCC(CN2CCCc3cc(Cl)cc(-c4ccnc5cc(CN6C(=O)CCC6=O)sc45)c32)CC1` [Example 50, 1-[[7-[6-chloro-1-[(1-methyl-4-piperidyl)methyl]-3,4-dihydro-2H-quinolin-8-yl]thieno[3,2-b]pyridin-2-yl]methyl]pyrrolidine-2,5-dione] showed an IC50 of 10 to 100 nM. The figure for `O=c1ccn(C2CC2)c(=O)n1Cc1cc2nccc(-c3cc(Cl)cc4c3N([C@@H]3CNC5(CCC5)C3)CCC4)c2s1` [Example 148, (S)-3-((7-(6-chloro-1-(5-azaspiro[3.4]octan-7-yl)-1,2,3,4-tetrahydroquinolin-8-yl)thieno[3,2-b]pyridin-2-yl)methyl)-1-cyclopropylpyrimidine-2,4(1H,3H)-dione] is less than 10 nM; for `O=C1CCC(=O)N1Cc1cc2nccc(-c3cc(Cl)cc4c3N(C3CNC3)C[C@H]3C[C@@H]43)c2s1` (single isomer, unassigned) [Example 43b] it is 10 to 100 nM. Under `O=c1cc(C2CC2)cnn1Cc1cc2nccc(-c3cc(Cl)cc4c3N([C@@H]3CN[C@@H](CO)C3)CCC4)c2s1` [Example 186, 2-[[7-[6-chloro-1-[(3S,5R)-5-(hydroxymethyl)pyrrolidin-3-yl]-3,4-dihydro-2H-quinolin-8-yl]thieno[3,2-b]pyridin-2-yl]methyl]-5-cyclopropyl-pyridazin-3-one] stands less than 10 nM; under `O=c1ccn(C(F)F)c(=O)n1Cc1cc2nccc(-c3cc(Cl)cc4c3N([C@@H]3CNC5(CCC5)C3)CCC4)c2s1` [Example 149, (S)-3-((7-(6-chloro-1-(5-azaspiro[3.4]octan-7-yl)-1,2,3,4-tetrahydroquinolin-8-yl)thieno[3,2-b]pyridin-2-yl)methyl)-1-(difluoromethyl)pyrimidine-2,4(1H,3H)-dione], less than 10 nM. For `CC1(C)C[C@H](N2CCCc3cc(Cl)cc(-c4ccnc5cc(CN6C(=O)CCC6=O)sc45)c32)CN1` [Example 119, (S)-1-((7-(6-chloro-1-(5,5-dimethylpyrrolidin-3-yl)-1,2,3,4-tetrahydroquinolin-8-yl)thieno[3,2-b]pyridin-2-yl)methyl)pyrrolidine-2,5-dione], the IC50 is less than 10 nM. In turn, `O=C1CCC(=O)N1Cc1cc2nccc(-c3cc(Cl)cc4c3N(C3CNC3)C(=O)CO4)c2s1` [Example 53, 1-[[7-[4-(azetidin-3-yl)-7-chloro-3-oxo-1,4-benzoxazin-5-yl]thieno[3,2-b]pyridin-2-yl]methyl]pyrrolidine-2,5-dione] displayed an IC50 of 10 to 100 nM. The figure for `O=C1CCC(=O)N1Cc1cc2nccc(-c3cc(Cl)cc4c3N([C@@H]3CN(CCO)C5(CCC5)C3)CCC4)c2s1` [Example 141, (S)-1-((7-(6-chloro-1-(5-(2-hydroxyethyl)-5-azaspiro[3.4]octan-7-yl)-1,2,3,4-tetrahydroquinolin-8-yl)thieno[3,2-b]pyridin-2-yl)methyl)pyrrolidine-2,5-dione] is less than 10 nM. `Cc1ccnn(Cc2cc3nccc(-c4cc(C(F)(F)F)cc5c4N(C4CNC6(CCC6)C4)CCO5)c3s2)c1=O` (single isomer, unassigned) [Example 176a] came in with a half-maximal inhibitory concentration (IC50) of 101 to 1000 nM. The figure for `N#Cc1cc(-c2ccnc3cc(Cn4c(=O)ccn(CC(F)F)c4=O)sc23)c2c(c1)[C@@H]1C[C@@H]1CN2[C@@H]1CCNC1` [Example 117b, (1aS,7bR)-4-(2-((3-(2,2-difluoroethyl)-2,6-dioxo-2,3-dihydropyrimidin-1(6H)-yl)methyl)thieno[3,2-b]pyridin-7-yl)-3-((R)-pyrrolidin-3-yl)-1a,2,3,7b-tetrahydro-1H-cyclopropa[c]quinoline-6-carbonitrile] is 10 to 100 nM; for `O=C1C2CC2C(=O)N1Cc1cc2nccc(-c3cc(Cl)cc4c3N([C@@H]3CN[C@@H](CO)C3)CCO4)c2s1` (stereo partly drawn) [Example 214, 3-((7-(7-chloro-4-((3S,5R)-5-(hydroxymethyl)pyrrolidin-3-yl)-3,4-dihydro-2H-benzo[b][1,4]oxazin-5-yl)thieno[3,2-b]pyridin-2-yl)methyl)-3-azabicyclo[3.1.0]hexane-2,4-dione] it is less than 10 nM; for `O=C1CCC(=O)N1Cc1cc2nccc(-c3cc(Cl)cc4c3N(C3CN(CC(F)F)C3)CCC4)c2s1` [Example 11, 1-((7-(6-chloro-1-(1-(2,2-difluoroethyl)azetidin-3-yl)-1,2,3,4-tetrahydroquinolin-8-yl)thieno[3,2-b]pyridin-2-yl)methyl)pyrrolidine-2,5-dione] it is 101 to 1000 nM.

`O=C1OC[C@H](C(F)(F)F)N1Cc1cc2nccc(-c3cc(Cl)cc4c3N([C@@H]3CNC5(CCC5)C3)CCC4)c2s1` [Example 158, (R)-3-((7-(6-chloro-1-((S)-5-azaspiro[3.4]octan-7-yl)-1,2,3,4-tetrahydroquinolin-8-yl)thieno[3,2-b]pyridin-2-yl)methyl)-4-(trifluoromethyl)oxazolidin-2-one] showed a 50% inhibitory concentration (IC50) of less than 10 nM.

As for `O=C1CCC(=O)N1Cc1cc2nccc(-c3cc(Cl)cc4c3N([C@@H]3CCNC3)CC3CC43)c2s1` (single isomer, unassigned) [Example 113b], the 50% inhibitory concentration (IC50) lay within 10 to 100 nM. The figure for `O=C1CCC(=O)N1Cc1sc2c(-c3cc(Cl)cc4c3N(C3CCNC3)CCC4)ccnc2c1F` (single isomer, unassigned) [Example 108b] is 10 to 100 nM. The figure for `N[C@@H]1CCN(C2CCOc3cc(Cl)cc(-c4ccnc5cc(CN6C(=O)CCC6=O)sc45)c32)C1` (stereo in doubt) [Example 230a, 1-((7-((S)-4-((R)-3-aminopyrrolidin-1-yl)-7-chlorochroman-5-yl)thieno[3,2-b]pyridin-2-yl)methyl)pyrrolidine-2,5-dione] is 10 to 100 nM; for `C[C@@H]1CCc2cc(Cl)cc(-c3ccnc4cc(CN5C(=O)CCC5=O)sc34)c2N1[C@@H]1CCNC1` (single isomer, unassigned) [Example 44c] it is 10 to 100 nM; for `O=C1CCC(=O)N1Cc1cc2nccc(-c3cc(Cl)cc4c3N(C3CC5(CNC5)C3)CCC4)c2s1` [Example 137, 1-[[7-[1-(2-azaspiro[3.3]heptan-6-yl)-6-chloro-3,4-dihydro-2H-quinolin-8-yl]thieno[3,2-b]pyridin-2-yl]methyl]pyrrolidine-2,5-dione] it is 10 to 100 nM. As to `CC(C)(C)c1cnn(Cc2cc3nccc(-c4cc(C#N)cc5c4N([C@@H]4CN[C@@](C)(CO)C4)CCO5)c3s2)c(=O)c1` [Example 221, 5-[2-[(4-tert-butyl-6-oxo-pyridazin-1-yl)methyl]thieno[3,2-b]pyridin-7-yl]-4-[(3S,5R)-5-(hydroxymethyl)-5-methyl-pyrrolidin-3-yl]-2,3-dihydro-1,4-benzoxazine-7-carbonitrile], the IC50 was less than 10 nM. Under `CN1C[C@@H](N2CCCc3cc(C#N)cc(-c4ccnc5cc(Cn6c(=O)ccn(C)c6=O)sc45)c32)CC1(C)C` [Example 123, (S)-8-(2-((3-methyl-2,6-dioxo-2,3-dihydropyrimidin-1(6H)-yl)methyl)thieno[3,2-b]pyridin-7-yl)-1-(1,5,5-trimethylpyrrolidin-3-yl)-1,2,3,4-tetrahydroquinoline-6-carbonitrile] stands less than 10 nM.

These data come from US20240158412A1 (Faxian Therapeutics, LLC, priority 2021, published 2024).
